Measurements: patent US12692396B2, “Fluorescent labeling agent and fluorescent dye” (artience Co., Ltd., priority 2020, dated 2026)

Legend:
[1] = test system: Human epithelium cancer cells A431; assay: Evaluation of cell toxicity of fluorescent labeling agent (cell counting kit-8, absorbance at 450 nm); format: cell-based
Method: <Evaluation of Cell Toxicity of Fluorescent Labeling Agent>
(§1) Human epithelium cancer cells A431 were seeded in a 96-well plate (1×10^4 cells/well). Next, the A431 were cultured for 24 hours using an RPMI 1640 medium to which 10% fetal bovine serum (FBS) and 1% penicillin-streptomycin had been added in an incubator (37° C., 5% CO2-containing Air, humidified environment). As the RPMI 1640 medium, an RPMI-164-Medium manufactured by Sigma-Aldrich Inc. was used.
After cultivation, the medium was removed, the fluorescent labeling agents prepared in Examples 83 to 123 and Comparative Examples 25 to 37 and an RPMI 1640 medium containing 1% dimethyl sulfoxide (DMSO medium solution) were added thereto. These were left to stand in the incubator for one hour and then washed in the RPMI 1640 medium. 10 μL of a cell counting kit-8 (manufactured by Dojindo Laboratories.) was added to each well and left to stand in the incubator (37° C., 5% CO2-containing Air, humidified environment) for one hour. Next, the absorbance at 450 nm was measured using a plate reader (SPARK, manufactured by Tecan Trading AG).
The relative value of the absorbance of each fluorescent labeling agent when the absorbance of the well to which the DMSO medium solution had been added was regarded as one was calculated and evaluated based on the following standards. […] At the time of calculating the relative value of the absorbance of the fluorescent labeling agent, a value obtained by subtracting the absorbance before the addition of the cell counting kit-8 (manufactured by Dojindo Laboratories.) from the measured absorbance was used.
• P (Pass): 0.8 or more • F (Failure): Less than 0.8 <Evaluation of Fluorescence Intensity of Fluorescent Labeling Agent>

phospholipids = assay: Evaluation of property of fluorescent dye being accumulated in phospholipids (labeling agent intensity / dye solution intensity); format: cell-based, Human; settings: A431 cells, one hour; relative value, comparative compound 12 regarded as one; fluorescent wavelength range as in Table 22 (780-800 nm, 630-650 nm in last line)
Method: <Evaluation of Property of Fluorescent Dye being Accumulated in Phospholipids>
The property of each dye being accumulated in phospholipids was calculated from the fluorescence intensity integral value obtained from the fluorescent spectrum of the dye solution and the fluorescence intensity obtained from the fluorescence intensity of the fluorescent labeling agent using an expression (1). The relative value of the property of each fluorescent labeling agent being accumulated in phospholipids when the property of the comparative compound 12 being accumulated in phospholipids was regarded as one was calculated and evaluated based on the following standards. In a case where the relative value is evaluated as 3 or more, it can be said that each fluorescent dye has a favorable property of being accumulated in phospholipids.
• 4: The property of being accumulated in phospholipids is 4 or more. • 3: The property of being accumulated in phospholipids is 2 or more and less than 4. • 2: The property of being accumulated in phospholipids is 1 or more and less than 2. • 1: The property of being accumulated in phospholipids is less than 1. Property of being accumulated in phospholipids=fluorescence intensity of fluorescent labeling agent/fluorescence intensity of dye solution (1)

[2] = test system: Human epithelium cancer cells A431; assay: Evaluation of visibility of cell (fluorescent microscope); format: cell-based; design: key: P (Pass): Clear; F (Failure): Unclear
Method: <Evaluation of Visibility of Cell>
as §1, with “The” for “Next, the”, “environment).” for “environment). As the RPMI 1640 medium, an RPMI-164-Medium manufactured by Sigma-Aldrich Inc. was used.”
After cultivation, the medium was removed, and the fluorescent labeling agents prepared in Examples 127 to 189 and Comparative Examples 25 to 37 were added thereto and left to stand in the incubator for one hour. Next, these were washed in the RPMI 1640 medium. The dark field images and fluorescent images of the cells were observed using a fluorescent microscope (manufactured by Keyence Corporation, BZ-X800) equipped with an excitation filter for an appropriate wavelength and a fluorescent filter and evaluated based on the following standards.
• P (Pass): Clear • F (Failure): Unclear
The evaluation results of the visibility of the cells labeled with the fluorescent labeling agents 1, 15, 19, 24, 25, 68, and 75 are sequentially shown in FIGS. 2 to 8 (magnification: 10 times, optical uptake time: 1 second).
The evaluation results of the visibility of the cells labeled with the fluorescent labeling agents 42 and 53 are sequentially shown in FIGS. 9 to 10 (magnification: 40 times, optical uptake time: 1 second).
From what has been described above, it has been clarified that the fluorescent labeling agent according to the embodiment of the present invention has excellent characteristics as a fluorescent labeling agent.

[3] = labeling agent left one hour, absorbance relative to DMSO medium solution regarded as one
[4] = A431 cells, labeling agent left one hour
[5] = cell counting kit-8, absorbance at 450 nm, pass/fail grade
[6] = A431 cells labeled for one hour, Clear/Unclear

Row | SMILES | Cell toxicity [1, 3] | Property of being accumulated in phospholipids (phospholipids) | Cell visibility [2, 4] | Cell toxicity [1, 5] | Cell visibility [2, 6]
1 | C[Si](C)(CCCN)[O][Al]1[n]2c3c4cc(-c5ccccc5)ccc4c2N=C2N=C(N=c4c5cc(-c6ccccc6)ccc5c([n]41)=NC1=NC(=N3)c3ccc(-c4ccccc4)cc31)c1ccc(-c3ccccc3)cc12 [Fluorescent dye 2] | P (P (Pass): 0.8 or more) | 4 (4: The property of being accumulated in phospholipids is 4 or more.) | P |  | 
2 | C[Si](C)(CCCN)[O][Al]1[n]2c3c4cc(C5CCCCC5)c(C5CCCCC5)cc4c2N=C2N=C(N=c4c5cc(C6CCCCC6)c(C6CCCCC6)cc5c([n]41)=NC1=NC(=N3)c3cc(C4CCCCC4)c(C4CCCCC4)cc31)c1cc(C3CCCCC3)c(C3CCCCC3)cc12 [Fluorescent dye 3] | P (P (Pass): 0.8 or more) |  |  |  | 
3 | C[Si](C)(CCCN)[O][Al]1[n]2c3c4cccc(Sc5ccccc5)c4c2N=C2N=C(N=c4c5cccc(Sc6ccccc6)c5c([n]41)=NC1=NC(=N3)c3c(Sc4ccccc4)cccc31)c1c(Sc3ccccc3)cccc12 [Fluorescent dye 4] | P (P (Pass): 0.8 or more) |  |  |  | 
4 | CCOc1cccc2c1C1=NC2=Nc2c3c(OCC)cccc3c3n2[Si](O)(O[Si](C)(C)CCCN)n2c(c4cccc(OCC)c4c2=NC2=NC(=N3)c3c(OCC)cccc32)=N1 (centres unmarked) [Fluorescent dye 5] | P (P (Pass): 0.8 or more) |  |  |  | 
5 | CCOc1cccc2c1C1=NC2=Nc2c3c(OCC)cccc3c3[n]2[Al]([O]S(=O)(=O)c2ccc(CCN)cc2)[n]2c(c4cccc(OCC)c4c2=NC2=NC(=N3)c3c(OCC)cccc32)=N1 [Fluorescent dye 6] | P (P (Pass): 0.8 or more) |  |  |  | 
6 | NCCc1ccc(S(=O)(=O)[O][Al]2[n]3c4c5cc(C(F)(F)F)ccc5c3N=C3N=C(N=c5c6cc(C(F)(F)F)ccc6c([n]52)=NC2=NC(=N4)c4ccc(C(F)(F)F)cc42)c2ccc(C(F)(F)F)cc23)cc1 [Fluorescent dye 7] | P (P (Pass): 0.8 or more) |  |  |  | 
7 | CCCCCCCCCCCCCCCCCCc1ccc2c(c1)C1=NC2=Nc2c3cc(CCCCCCCCCCCCCCCCCC)ccc3c3[n]2[Al]([O]S(=O)(=O)c2ccc(CCN)cc2)[n]2c(c4ccc(CCCCCCCCCCCCCCCCCC)cc4c2=NC2=NC(=N3)c3cc(CCCCCCCCCCCCCCCCCC)ccc32)=N1 [Fluorescent dye 8] | P (P (Pass): 0.8 or more) |  |  |  | 
8 | CC(C)(C)c1ccc2c(c1)C1=NC2=Nc2c3cc(C(C)(C)C)ccc3c3[n]2[Al]([O]S(=O)(=O)c2ccc(CCN)cc2)[n]2c(c4ccc(C(C)(C)C)cc4c2=NC2=NC(=N3)c3cc(C(C)(C)C)ccc32)=N1 [Fluorescent dye 9] | P (P (Pass): 0.8 or more) |  |  |  | 
9 | CCOc1cccc2c1C1=NC2=Nc2c3c(OCC)cccc3c3[n]2[Al]([O]C(=O)CCCN)[n]2c(c4cccc(OCC)c4c2=NC2=NC(=N3)c3c(OCC)cccc32)=N1 [Fluorescent dye 10] | P (P (Pass): 0.8 or more) |  |  |  | 
10 | CCOc1cccc2c1C1=NC2=Nc2c3c(OCC)cccc3c3[n]2[Al]([O]C(=O)c2ccc(C(=O)O)cc2)[n]2c(c4cccc(OCC)c4c2=NC2=NC(=N3)c3c(OCC)cccc32)=N1 [Fluorescent dye 11] | P (P (Pass): 0.8 or more) |  |  |  | 
11 | CC(C)C(Oc1cccc2c1C1=NC2=Nc2c3c(OC(C(C)C)C(C)C)cccc3c3[n]2[Al]([O]S(=O)(=O)CCCOCCC(=O)O)[n]2c(c4cccc(OC(C(C)C)C(C)C)c4c2=NC2=NC(=N3)c3c(OC(C(C)C)C(C)C)cccc32)=N1)C(C)C [Fluorescent dye 12] | P (P (Pass): 0.8 or more) |  |  |  | 
12 | CCOc1cccc2c1C1=NC2=Nc2c3c(OCC)cccc3c3[n]2[Al]([O]C(=O)CCN(C)C)[n]2c(c4cccc(OCC)c4c2=NC2=NC(=N3)c3c(OCC)cccc32)=N1 [Fluorescent dye 14] | P (P (Pass): 0.8 or more) | 4 (4: The property of being accumulated in phospholipids is 4 or more.) | P |  | 
13 | CCOc1cccc2c1C1=NC2=Nc2c3c(OCC)cccc3c3n2[Si](O)(OP(=O)(CCC(=O)O)c2ccccc2)n2c(c4cccc(OCC)c4c2=NC2=NC(=N3)c3c(OCC)cccc32)=N1 (centres unmarked) [Fluorescent dye 16] | P (P (Pass): 0.8 or more) | 4 (4: The property of being accumulated in phospholipids is 4 or more.) | P |  | 
14 | CCOc1cccc2c1C1=NC2=Nc2c3c(OCC)cccc3c3[n]2[Al]([O]P(=O)(O)CCC(=O)O)[n]2c(c4cccc(OCC)c4c2=NC2=NC(=N3)c3c(OCC)cccc32)=N1 [Fluorescent dye 17] | P (P (Pass): 0.8 or more) | 4 (4: The property of being accumulated in phospholipids is 4 or more.) | P |  | 
15 | CCOc1cccc2c1C1=Nc3c4cccc(OCC)c4c4[n]3[Mg][n]3c(c5cccc(OCC)c5c3=NC2=N1)=NC1=NC(=N4)c2ccc(OS(=O)(=O)c3ccc(CCCN)cc3)cc21 [Fluorescent dye 36] |  |  |  | P (P (Pass): 0.8 or more) | P
16 | CCOc1cccc2c1C1=Nc3c4cccc(OCC)c4c4[n]3[Zn][n]3c(c5cccc(OCC)c5c3=NC2=N1)=NC1=NC(=N4)c2ccc(OS(=O)(=O)c3ccc(CCCN)cc3)cc21 [Fluorescent dye 37] |  |  |  | P (P (Pass): 0.8 or more) | P
17 | O=C(O)CCCN1C(=O)C2=C(c3ccccc3)NC(=O)C2=C1c1ccccc1 [Fluorescent dye 38] |  |  |  | P (P (Pass): 0.8 or more) | P
18 | CN(C)CCCNC(=O)c1ccc(C(=O)O)c(-c2c3ccc(=O)cc-3oc3cc(O)ccc23)c1 [Fluorescent dye 39] |  |  |  | P (P (Pass): 0.8 or more) | P
19 | CCN(CC)c1ccc2c(-c3ccccc3C(=O)NCCCN(C)C)c3ccc(=[N+](CC)CC)cc-3oc2c1.[Cl-] [Fluorescent dye 40] |  |  |  | P (P (Pass): 0.8 or more) | P
20 | CC1=CC(C)=[N+]2C1Cc1ccc(CCC(=O)NCCCN(C)C)n1[B-]2(F)F (centres unmarked) [Fluorescent dye 41] |  |  |  | P (P (Pass): 0.8 or more) | P
21 | CCOc1cccc2c1C1=Nc3c4cccc(OCC)c4c4[n]3[Al-2]35([O][PH](=O)CCCO)[n]6c(c7cccc(OCC)c7c6=NC2=[N+]13)=NC1=[N+]5C(=N4)c2cccc(OCC)c21 (centres unmarked) [Fluorescent dye 54] |  |  |  | P (P (Pass): 0.8 or more) | P
22 | CCOc1cccc2c1C1=Nc3c4cccc(OCC)c4c4[n]3[Al-2]35([O]S(=O)(=O)c6ccc(O)cc6)[n]6c(c7cccc(OCC)c7c6=NC2=[N+]13)=NC1=[N+]5C(=N4)c2cccc(OCC)c21 [Fluorescent dye 55] |  |  |  | P (P (Pass): 0.8 or more) | P
23 | O=C1NC(c2ccccc2)=C2C(=O)N(CCCP(=O)(O)O)C(c3ccccc3)=C12 [Fluorescent dye 60] |  |  |  | P (P (Pass): 0.8 or more) | P
24 | CN1/C(=C/C=C/C=C/C2=[N+](CCCCCC(=O)NCCCO)c3ccccc3C2(C)C)C(C)(C)c2ccccc21 [Fluorescent dye 62] |  |  |  | P (P (Pass): 0.8 or more) | P
25 | CC1=CC(C)=[N+]2C1=Cc1ccc(CCC(=O)NCCCO)n1[B-]2(F)F [Fluorescent dye 63] |  |  |  | P (P (Pass): 0.8 or more) | P
